One data set deals with FADD (-/-) Jurkat cells. The data set is described as follows: Viability experiment in the absence of TNF. It is filed as cell-based. Conditions: FADD deficient Jurkat cells, Fig 3A. The procedure: Necroptosis assays were performed at Charles River Laboratories (United Kingdom) and at Biogen. […] On the day of the experiment, cells were counted using Nexcelom Bioscience Cell Meter Vision and pelleted by centrifugation. Cell pellets were resuspended in fresh medium at 500,000 cells per mL and transferred to assay-ready compound plates prepared in 384-well white TC plates (Greiner #781080) at 20μl cells per well. Cells and compound were incubated at room temperature for 30 minutes followed by +/- stimulation with 15ng/ml TNF-α (Cell signalling Technologies #8902LF) overnight at 37°C. In the morning, plates were equilibrated to room temperature for 30 minutes and 25μl of CellTiter-Glow (CellTiter-Glo 2.0 Assay, Promega # G9243) diluted 1:4 in PBS was added to each well and allowed to incubate for 10 minutes at room temperature. Luminescence was read on an Envision plate reader (Perkin Elmer). Percent viability values are calculated from separate dose response experiments identical to the percent rescue experiment except that no TNF is added to the cells. This assay is intended to identify compounds that not only don’t rescue, but are toxic themselves. 100% Viability is defined as the intensity value of the “no TNF” wells, cell treated with neither compound nor TNF. […]

Data set [1] has as its target T1, full length His-MBP-MLKL-3 (Homo sapiens, UniProt Q8NB16).
T1 construct: The full length MLKL was prepared in baculovirus; made in house; host or cells: baculovirus-infected sf9 insect cells
T1 sequence (Q8NB16 1-471): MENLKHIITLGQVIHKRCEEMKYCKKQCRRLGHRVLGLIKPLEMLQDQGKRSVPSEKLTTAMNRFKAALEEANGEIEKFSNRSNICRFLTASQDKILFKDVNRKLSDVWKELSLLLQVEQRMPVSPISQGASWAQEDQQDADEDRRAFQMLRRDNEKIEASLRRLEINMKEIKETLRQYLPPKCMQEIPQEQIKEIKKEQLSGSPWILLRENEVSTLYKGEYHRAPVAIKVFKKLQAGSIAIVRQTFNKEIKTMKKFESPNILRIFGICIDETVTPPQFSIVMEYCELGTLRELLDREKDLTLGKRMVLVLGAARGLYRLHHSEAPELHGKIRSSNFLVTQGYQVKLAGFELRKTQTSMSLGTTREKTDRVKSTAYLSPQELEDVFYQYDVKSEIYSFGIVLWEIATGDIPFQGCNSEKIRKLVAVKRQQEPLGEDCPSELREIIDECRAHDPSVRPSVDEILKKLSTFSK
The data set is described as follows: Second harmonic generation (SHG) conformational assay, full length MLKL. As to conditions: 10 μM compound, 20 minutes, mean ± SE. The procedure:
The full length MLKL was prepared in baculovirus using a bacmid DNA which was modified to include a Tev cleavable N-terminal His6 maltose binding protein (His-MBP) tag. His-MBP-MLKL-3 was expressed in baculovirus-infected sf9 insect cells grown in SF-900 II serum-free medium (Invitrogen). Cells were harvested by centrifugation 48 hours post-infection. The cells were resuspended in lysis buffer (50mM TRIS pH 8.0, 500mM NaCl, 10% glycerol, 1mM DTT and Roche EDTA-free protease inhibitor cocktail) and were lysed using a microfluidizer. The lysate was clarified by centrifugation at 20,000 x g for 1 hour at 4°C and the His-MBP-MLKL-3 was captured by batch binding to Nickel NTA resin overnight at 4°C. The resin was washed with buffer A (25mM TRIS pH 8.0, 250mM NaCl, 10% glycerol, 1mM DTT) and loaded into an XK column and washed until no non-specific unbound protein was detected. His-MBP-MLKL3 was eluted from the column using buffer A supplemented with 250mM imidazole pH 8.0 and analyzed by SDS-PAGE. […]
Experiments were performed on a Biodesy Delta System. […] The fundamental is directed to an arrangement of prisms integrated with the custom, glass-bottomed Biodesy Delta Read Plates, where it undergoes total internal reflection (TIR) to generate the evanescent field at the glass-lipid bilayer interface. […]

Turning to `CN(c1ccc(NC(=O)Nc2ccc(OC(F)(F)F)cc2)cc1)c1ccnc(Nc2cccc(S(N)(=O)=O)c2)n1` [cpd 1, reference compound], in the data set on FADD (-/-) Jurkat cells, the “compound concentration at which cell viability became an issue” value is > 2 µM. The “% change in SHG intensity, Full-length HisMBP-MLKL-3” value in data set [1] is listed as 25.9 ± 1.6%.

For the origin of these results see publication PMC5104457, “ATP-Competitive MLKL Binders Have No Functional Impact on Necroptosis” (PLoS ONE, 2016).
